From EP4759805A1, “NLRP3 INFLAMMASOME INHIBITOR AND USE THEREOF” (NEUROCRINE BIOSCIENCES, INC., priority 2023, dated 2025)

Target: T1, NLRP3 inflammasome (Homo sapiens, UniProt Q96P20)
T1 construct: endogenous in cells; host or cells: THP-1 cells (PMA-differentiated, LPS-primed, nigericin-stimulated)
Assay: Cell assay of inhibitory activity against NLRP3 inflammasome in THP-1 cells (LPS/nigericin stimulation, caspase-1 glo readout)
Type: cell-based
Conditions: PMA-differentiated THP-1 cells; LPS 500 ng/ml 3 h, compound 1 h, nigericin 10 µg/ml 30 min; active caspase-1 in supernatant
Procedure: Experimental Example 1: Cell assay of inhibitory activity of the compounds of the present disclosure against NLRP3 inflammasome
Test compounds: the compounds of the present disclosure prepared in accordance with the methods described in the Examples
THP-1 was an immortalized human macrophage cell line.
Test instrument: Microplate reader (manufactured by PE)
• 1. THP-1 cells were cultured in 1640 complete medium (500 ml 1640+56 ml FBS+560 µl 1000× P/S+2 µl mercaptoethanol), and used within 3 to 20 passages. • 2. Coating of culture plates: 100 µl of polylysine solution was added into a 96-well cell culture plate and incubated at 37°C for 30min. The solution was discarded, and the plate was washed twice with PBS for later use. • 3. Induction of differentiation of THP-1: THP-1 cells were resuspended in an appropriate amount of complete medium containing 10 ng/ml PMA to achieve a cell density of 5×10^5 cells /ml in the suspension. The cell suspension was added into a 96-well plate with 100 µl of cell suspension per well, and the 96-well plate was cultured overnight for 16 hours in a 37°C CO2 cell incubator. • 4. Stimulation of THP-1: • a. Serum-free THP-1 culture medium containing LPS was added to achieve a final concentration of 500 ng/ml, and the resultant was cultured in a 37°C CO2 cell incubator for 3h; • b. The compounds to be tested were prepared into stock solutions at gradient concentrations with DMSO. The resulting solutions were added to the cells, evenly mixed, and finally diluted at 1:1000. The 96-well plate was cultured in a 37°C CO2 cell incubator for 1h. • c. Nigericin was added to each well to achieve a final concentration of 10 µg/ml, and the resultant was cultured in a 37°C CO2 cell incubator for 30 min. • d. The resulting culture medium in each well was transferred to a new culture plate, which was then centrifuged at 3000 rpm for 5min. Afterwards, the supernatant was transferred to a new 96-well plate. • e. The collected supernatant samples of the cell culture medium were determined by using a commercial caspase-1 glo kit, and the content of human active caspase-1 was determined according to the manufacturer's instructions.

T1 sequence (Q96P20 whole entry): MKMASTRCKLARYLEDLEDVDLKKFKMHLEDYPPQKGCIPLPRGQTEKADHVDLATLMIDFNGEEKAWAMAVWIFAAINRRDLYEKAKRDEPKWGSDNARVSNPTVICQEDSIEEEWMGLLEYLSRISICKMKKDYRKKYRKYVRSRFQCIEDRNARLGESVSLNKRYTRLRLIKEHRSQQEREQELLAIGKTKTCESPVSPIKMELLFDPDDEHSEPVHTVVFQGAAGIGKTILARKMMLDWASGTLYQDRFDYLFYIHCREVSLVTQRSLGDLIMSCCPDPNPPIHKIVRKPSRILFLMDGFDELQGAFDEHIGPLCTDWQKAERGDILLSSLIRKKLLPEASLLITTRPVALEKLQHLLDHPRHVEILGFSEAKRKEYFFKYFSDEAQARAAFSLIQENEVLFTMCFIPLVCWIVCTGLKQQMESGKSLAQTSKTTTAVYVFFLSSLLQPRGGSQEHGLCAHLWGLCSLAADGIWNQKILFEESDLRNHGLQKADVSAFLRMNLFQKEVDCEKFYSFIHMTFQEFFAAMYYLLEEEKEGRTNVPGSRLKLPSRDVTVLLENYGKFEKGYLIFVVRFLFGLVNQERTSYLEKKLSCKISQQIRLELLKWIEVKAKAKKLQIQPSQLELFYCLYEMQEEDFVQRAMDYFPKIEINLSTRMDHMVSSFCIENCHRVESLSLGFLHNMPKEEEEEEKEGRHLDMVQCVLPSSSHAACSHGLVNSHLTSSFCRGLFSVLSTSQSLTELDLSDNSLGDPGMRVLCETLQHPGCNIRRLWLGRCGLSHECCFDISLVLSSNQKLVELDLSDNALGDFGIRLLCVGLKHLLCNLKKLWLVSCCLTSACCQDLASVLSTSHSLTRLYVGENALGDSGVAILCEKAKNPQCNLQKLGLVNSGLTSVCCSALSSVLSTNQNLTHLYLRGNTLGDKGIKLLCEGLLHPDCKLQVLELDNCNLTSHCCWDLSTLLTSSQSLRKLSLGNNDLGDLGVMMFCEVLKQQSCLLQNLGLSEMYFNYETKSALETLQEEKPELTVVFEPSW

Row | Structure (SMILES) | IC50 [nM]
1 | C#Cc1ccc(-c2nnc(NC(=O)CNCC)cc2C2CC2)c(O)c1 [Compound 8, N-(5-cyclopropyl-6-(4-ethynyl-2-hydroxyphenyl)pyridazin-3-yl)-2-(ethylamino)acetamide] | 1.4
2 | C#Cc1ccc(-c2nnc(NC(=O)[C@H](N)C(C)C)cc2C2CC2)c(O)c1 [Compound 56, (R)-2-amino-N-(5-cyclopropyl-6-(4-ethynyl-2-hydroxyphenyl)pyridazin-3-yl)-3-methylbut anamide] | 7.1
3 | C#Cc1ccc(-c2nnc(NC(=O)CN)cc2C2CC2)c(O)c1 [Compound 13, 2-amino-N-(5-cyclopropyl-6-(4-ethynyl-2-hydroxyphenyl)pyridazin-3-yl)acetamide] | 23.2
4 | C#Cc1ccc(-c2nnc(NC(=O)CNC(C)C)cc2C2CC2)c(O)c1 [Compound 9, N-(5-cyclopropyl-6-(4-ethynyl-2-hydroxyphenyl)pyridazin-3-yl)-2-(isopropylamino)acetamide] | 9.7

Other lines, results leading:

Row | IC50 [nM] | Structure (SMILES)
5 | 7.2 | C[C@@H](N)C(=O)Nc1cc(C2CCC2)c(-c2ccc(C(F)(F)F)cc2O)nn1 [Compound 63, (R)-2-amino-N-(5-cyclobutyl-6-(2-hydroxy-4-(trifluoromethyl)phenyl)pyridazin-3-yl)prop anamide]
6 | 17.5 | C#Cc1ccc(-c2nnc(NC(=O)[C@H](N)[C@H](C)O)cc2C2CC2)c(O)c1 [Compound 57, (2R, 3S)-2-amino-N-(5-cyclopropyl-6-(4-ethynyl-2-hydroxyphenyl)pyridazin-3-yl)-3-hydroxyb utanamide]
